Results taken from patent US6608032B1, “Medicinal compositions” (Takara Shuzo Co., Ltd., priority 1999, dated 2003).

What was measured:
cyclooxygenase 2 protein = test: LPS-induced cyclooxygenase 2 protein expression in RAW264.7 cells (Western blot); type: cell-based; conditions: 50 μl of 10 mM solution per 5 ml, added 0 or 6 hours before LPS
Method: (1) RAW264.7 cells (ATCC TIB 71) were suspended in Dulbecco's modified Eagle's medium (Bio Whittaker, 12-604F) containing 10% fetal calf serum (Gibco) at a concentration of 3×10^5 cells/ml. 5 ml of the suspension was added to each well of a 6-well microtiter plate and the plate was incubated at 37° C. overnight in the presence of 5% CO2. 50 μl of a solution containing agarobiose or agarohexaose at a concentration of 10 mM in water was added to the well. The plate was incubated for 0 or 6 hours. 50 μl of a solution containing lipopolysaccharide (LPS, Sigma, L-2012) at a concentration of 100 μg/ml in water was added to the well. The plate was incubated for additional 12 hours. The cells were recovered by detaching the cells from the plate using a scraper and suspended in phosphate buffered saline containing 1 μg/ml pepstatin A (Sigma, P5318), 1 μg/ml leupeptin (Sigma, L2884), 1 mM phenylmethylsulfonyl fluoride (Nacalai Tesque, 273-27), 10 mM ethylenediaminetetraacetic acid disodium salt and 0.1% Triton X-100. A supernatant obtained by centrifuging the suspension after freezing and thawing was used as a protein fraction. The content of protein in the protein fraction was determined using Micro BCA Protein Assay Reagent (a product of Pierce sold by Takara Shuzo, P7411). […]

RAW264.7 cells = test: LPS-induced IL-10 production in RAW264.7 cells; type: cell-based; conditions: 5 μl of 10 mM solution per 0.5 ml, 5 hours before LPS; 18 hours; FIG. 18
Method: RAW264.7 cells (ATCC TIB 71) were suspended in Dulbecco's modified Eagle's medium (Bio Whittaker, 12-604F) containing 10% fetal calf serum (Gibco) at a concentration of 3×10^5 cells/ml. 0.5 ml of the suspension was added to each well of a 48-well microtiter plate and the plate was incubated at 37° C. overnight in the presence of 5% CO2. 5 μl of a solution containing agarobiose or agarohexaose in Referential Example 1 at a concentration of 10 mM in water was added to the well. After incubation for additional 5 hours, 5 μl of a solution of lipopolysaccharide (LPS, Sigma, L-2012) at a concentration of 100 μg/ml in water was added the well. After incubation for 18 hours, a culture supernatant was collected. The content of interleukin 10 (IL-10) in the culture supernatant was measured using enzyme immuno sandwich assay. As a control, a group to which the sample or the LPS aqueous solution was not added was provided. All of the measurements were carried out in duplicate.

Structure (SMILES)	increase in cyclooxygenase 2 protein expression induced by LPS (cyclooxygenase 2 protein)	LPS-induced IL-10 production (RAW264.7 cells)
OC[C@H]1O[C@@H](O[C@H]2[C@H]3OC[C@@H]2OC(O)[C@H]3O)[C@H](O)[C@@H](O)[C@H]1O (mixture of isomers) [Agarobiose, agarobiose]	not suppressed	inhibition of LPS-induced IL-10 production
OCC1OC(OC2C3COC2C(O)C(OC2C(O)C(CO)OC(OC4C5COC4C(O)C(OC4C(O)C(CO)OC(OC6C7COC6C(O)C(O)O7)C4O)O5)C2O)O3)C(O)C(O)C1O (stereo not shown) [Agarohexaose, agarohexaose]	not suppressed	inhibition of LPS-induced IL-10 production
